Source: ChEMBL document CHEMBL5465560, “Selectivity Literature for EUbOPEN Chemogenomic Library” (2024)

Experiments:
[1] = molecular target: Dual specificity protein kinase CLK1 (Homo sapiens, UniProt P49759); conditions: at 10 µM
[2] = molecular target: T1, Mitogen-activated protein kinase kinase kinase 15 (Homo sapiens) (UniProt Q6ZN16); assay: Selectivity interaction (KinomeScan (DiscoverX)) EUB0000229b MAP3K15; conditions: at 10 µM
T1 sequence (whole entry): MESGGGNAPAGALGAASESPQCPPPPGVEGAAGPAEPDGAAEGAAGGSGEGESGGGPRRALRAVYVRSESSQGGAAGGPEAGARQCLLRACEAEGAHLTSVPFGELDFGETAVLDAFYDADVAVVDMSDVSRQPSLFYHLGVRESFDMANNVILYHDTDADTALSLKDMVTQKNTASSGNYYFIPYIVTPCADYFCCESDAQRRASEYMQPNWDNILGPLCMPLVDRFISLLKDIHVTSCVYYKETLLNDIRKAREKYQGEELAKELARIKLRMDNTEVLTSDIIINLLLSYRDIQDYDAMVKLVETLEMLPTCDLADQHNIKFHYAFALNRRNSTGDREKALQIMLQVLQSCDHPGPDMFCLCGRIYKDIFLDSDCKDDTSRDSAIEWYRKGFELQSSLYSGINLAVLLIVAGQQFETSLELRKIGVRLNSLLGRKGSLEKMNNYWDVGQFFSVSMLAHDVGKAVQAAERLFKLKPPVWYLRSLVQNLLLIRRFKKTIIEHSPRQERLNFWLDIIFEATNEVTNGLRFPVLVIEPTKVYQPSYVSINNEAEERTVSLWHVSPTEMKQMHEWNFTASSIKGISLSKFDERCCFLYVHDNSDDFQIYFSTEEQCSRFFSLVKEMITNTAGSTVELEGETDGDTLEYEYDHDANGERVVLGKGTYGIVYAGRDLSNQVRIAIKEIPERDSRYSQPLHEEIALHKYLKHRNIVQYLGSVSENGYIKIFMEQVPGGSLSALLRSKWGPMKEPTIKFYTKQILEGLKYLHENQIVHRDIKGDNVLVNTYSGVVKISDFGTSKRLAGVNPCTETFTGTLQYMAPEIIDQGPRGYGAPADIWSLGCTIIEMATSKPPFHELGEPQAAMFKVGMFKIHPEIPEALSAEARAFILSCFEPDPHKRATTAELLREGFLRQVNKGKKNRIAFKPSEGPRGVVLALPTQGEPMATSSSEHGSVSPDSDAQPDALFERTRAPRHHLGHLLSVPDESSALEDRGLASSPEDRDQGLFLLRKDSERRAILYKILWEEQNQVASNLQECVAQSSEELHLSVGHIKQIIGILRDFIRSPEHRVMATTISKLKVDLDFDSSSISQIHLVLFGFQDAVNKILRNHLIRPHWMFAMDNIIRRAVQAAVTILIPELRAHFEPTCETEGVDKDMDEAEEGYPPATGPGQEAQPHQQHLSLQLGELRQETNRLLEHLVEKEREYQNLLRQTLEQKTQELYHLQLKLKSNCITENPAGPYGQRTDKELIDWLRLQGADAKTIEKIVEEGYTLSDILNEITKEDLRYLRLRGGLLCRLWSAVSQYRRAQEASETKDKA

[3] = molecular target: Tyrosine-protein kinase Lck (Homo sapiens, UniProt P06239); conditions: at 3 µM
Chain of Tyrosine-protein kinase Lck (P06239 2-509 limits assumed): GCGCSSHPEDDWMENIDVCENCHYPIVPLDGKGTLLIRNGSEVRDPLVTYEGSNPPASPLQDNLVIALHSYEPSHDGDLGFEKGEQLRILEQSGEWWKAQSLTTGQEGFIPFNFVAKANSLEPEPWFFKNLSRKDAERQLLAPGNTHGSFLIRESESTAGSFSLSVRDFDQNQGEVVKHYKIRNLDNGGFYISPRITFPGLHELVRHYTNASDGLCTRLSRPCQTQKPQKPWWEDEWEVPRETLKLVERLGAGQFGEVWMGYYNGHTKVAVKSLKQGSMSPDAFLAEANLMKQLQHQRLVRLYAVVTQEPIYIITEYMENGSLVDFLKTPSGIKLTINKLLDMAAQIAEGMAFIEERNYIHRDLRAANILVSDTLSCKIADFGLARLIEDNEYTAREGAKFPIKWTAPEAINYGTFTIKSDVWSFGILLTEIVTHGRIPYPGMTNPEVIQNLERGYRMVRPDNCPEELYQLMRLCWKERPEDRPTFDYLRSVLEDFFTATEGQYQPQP

[4] = molecular target: Ephrin type-A receptor 5 (Homo sapiens) (UniProt P54756); conditions: at 10 µM
Chain of Ephrin type-A receptor 5 (Homo sapiens) (P54756 whole entry): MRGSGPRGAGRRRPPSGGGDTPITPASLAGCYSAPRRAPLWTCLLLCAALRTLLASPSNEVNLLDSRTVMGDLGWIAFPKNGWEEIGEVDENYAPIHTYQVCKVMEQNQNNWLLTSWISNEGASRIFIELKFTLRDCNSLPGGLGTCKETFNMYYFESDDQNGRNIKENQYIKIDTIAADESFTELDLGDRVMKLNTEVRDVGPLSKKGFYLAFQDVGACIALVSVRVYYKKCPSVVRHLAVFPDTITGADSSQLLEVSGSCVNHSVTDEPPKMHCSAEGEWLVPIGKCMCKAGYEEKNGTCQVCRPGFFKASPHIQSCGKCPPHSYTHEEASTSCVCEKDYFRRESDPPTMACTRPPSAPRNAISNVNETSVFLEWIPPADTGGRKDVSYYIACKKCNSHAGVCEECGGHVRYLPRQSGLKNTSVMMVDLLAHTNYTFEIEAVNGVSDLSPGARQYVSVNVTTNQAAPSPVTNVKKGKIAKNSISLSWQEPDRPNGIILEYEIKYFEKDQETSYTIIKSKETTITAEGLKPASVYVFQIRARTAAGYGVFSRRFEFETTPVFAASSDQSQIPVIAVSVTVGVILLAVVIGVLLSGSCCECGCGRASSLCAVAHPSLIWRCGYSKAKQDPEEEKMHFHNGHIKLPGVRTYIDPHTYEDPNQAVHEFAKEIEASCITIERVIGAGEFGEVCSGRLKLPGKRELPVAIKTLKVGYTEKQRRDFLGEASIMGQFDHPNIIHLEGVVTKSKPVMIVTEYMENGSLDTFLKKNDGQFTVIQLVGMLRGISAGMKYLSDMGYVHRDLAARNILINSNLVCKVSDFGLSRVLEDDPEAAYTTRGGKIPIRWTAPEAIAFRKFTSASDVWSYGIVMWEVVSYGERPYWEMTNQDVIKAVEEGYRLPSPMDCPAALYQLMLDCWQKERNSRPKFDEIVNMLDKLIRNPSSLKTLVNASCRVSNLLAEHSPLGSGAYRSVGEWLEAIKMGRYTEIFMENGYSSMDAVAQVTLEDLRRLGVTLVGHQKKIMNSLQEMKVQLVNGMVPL

[5] = molecular target: T2, Mitogen-activated protein kinase kinase kinase kinase 2 (Homo sapiens) (UniProt Q12851); assay: Selectivity interaction (ActivX KiNativ screen (kinase selectivity in THP-1 cell lysates)) EUB0000639a MAP4K2; assay type: subcellular; conditions: lysate, at 1 µM
T2 sequence (whole entry): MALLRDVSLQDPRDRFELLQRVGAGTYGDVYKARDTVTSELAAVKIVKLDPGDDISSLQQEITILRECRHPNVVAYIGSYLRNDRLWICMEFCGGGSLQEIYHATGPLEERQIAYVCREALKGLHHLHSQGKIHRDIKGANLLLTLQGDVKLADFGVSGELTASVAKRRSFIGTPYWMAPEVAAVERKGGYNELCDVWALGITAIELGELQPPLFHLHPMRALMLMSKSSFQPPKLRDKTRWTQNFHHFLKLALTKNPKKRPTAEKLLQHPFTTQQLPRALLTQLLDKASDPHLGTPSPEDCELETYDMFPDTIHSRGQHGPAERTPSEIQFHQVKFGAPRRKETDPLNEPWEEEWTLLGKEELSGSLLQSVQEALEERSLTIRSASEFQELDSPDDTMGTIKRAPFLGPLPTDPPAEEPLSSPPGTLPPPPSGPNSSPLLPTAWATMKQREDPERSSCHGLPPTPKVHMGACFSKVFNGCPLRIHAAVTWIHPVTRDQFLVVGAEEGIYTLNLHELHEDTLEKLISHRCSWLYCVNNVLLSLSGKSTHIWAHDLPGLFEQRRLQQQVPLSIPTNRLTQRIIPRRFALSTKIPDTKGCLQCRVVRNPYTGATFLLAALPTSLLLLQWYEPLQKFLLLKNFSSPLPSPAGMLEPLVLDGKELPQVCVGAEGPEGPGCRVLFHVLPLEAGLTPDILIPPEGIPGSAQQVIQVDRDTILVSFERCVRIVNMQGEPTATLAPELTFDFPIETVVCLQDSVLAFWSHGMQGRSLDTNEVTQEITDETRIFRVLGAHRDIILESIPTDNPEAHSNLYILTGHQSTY

[6] = molecular target: Vascular endothelial growth factor receptor 2 (Homo sapiens, UniProt P35968); assay: Selectivity interaction (KinomeScan (DiscoverX)) EUB0000695a KDR; conditions: at 100 nM
Chain of Vascular endothelial growth factor receptor 2 (P35968 whole entry): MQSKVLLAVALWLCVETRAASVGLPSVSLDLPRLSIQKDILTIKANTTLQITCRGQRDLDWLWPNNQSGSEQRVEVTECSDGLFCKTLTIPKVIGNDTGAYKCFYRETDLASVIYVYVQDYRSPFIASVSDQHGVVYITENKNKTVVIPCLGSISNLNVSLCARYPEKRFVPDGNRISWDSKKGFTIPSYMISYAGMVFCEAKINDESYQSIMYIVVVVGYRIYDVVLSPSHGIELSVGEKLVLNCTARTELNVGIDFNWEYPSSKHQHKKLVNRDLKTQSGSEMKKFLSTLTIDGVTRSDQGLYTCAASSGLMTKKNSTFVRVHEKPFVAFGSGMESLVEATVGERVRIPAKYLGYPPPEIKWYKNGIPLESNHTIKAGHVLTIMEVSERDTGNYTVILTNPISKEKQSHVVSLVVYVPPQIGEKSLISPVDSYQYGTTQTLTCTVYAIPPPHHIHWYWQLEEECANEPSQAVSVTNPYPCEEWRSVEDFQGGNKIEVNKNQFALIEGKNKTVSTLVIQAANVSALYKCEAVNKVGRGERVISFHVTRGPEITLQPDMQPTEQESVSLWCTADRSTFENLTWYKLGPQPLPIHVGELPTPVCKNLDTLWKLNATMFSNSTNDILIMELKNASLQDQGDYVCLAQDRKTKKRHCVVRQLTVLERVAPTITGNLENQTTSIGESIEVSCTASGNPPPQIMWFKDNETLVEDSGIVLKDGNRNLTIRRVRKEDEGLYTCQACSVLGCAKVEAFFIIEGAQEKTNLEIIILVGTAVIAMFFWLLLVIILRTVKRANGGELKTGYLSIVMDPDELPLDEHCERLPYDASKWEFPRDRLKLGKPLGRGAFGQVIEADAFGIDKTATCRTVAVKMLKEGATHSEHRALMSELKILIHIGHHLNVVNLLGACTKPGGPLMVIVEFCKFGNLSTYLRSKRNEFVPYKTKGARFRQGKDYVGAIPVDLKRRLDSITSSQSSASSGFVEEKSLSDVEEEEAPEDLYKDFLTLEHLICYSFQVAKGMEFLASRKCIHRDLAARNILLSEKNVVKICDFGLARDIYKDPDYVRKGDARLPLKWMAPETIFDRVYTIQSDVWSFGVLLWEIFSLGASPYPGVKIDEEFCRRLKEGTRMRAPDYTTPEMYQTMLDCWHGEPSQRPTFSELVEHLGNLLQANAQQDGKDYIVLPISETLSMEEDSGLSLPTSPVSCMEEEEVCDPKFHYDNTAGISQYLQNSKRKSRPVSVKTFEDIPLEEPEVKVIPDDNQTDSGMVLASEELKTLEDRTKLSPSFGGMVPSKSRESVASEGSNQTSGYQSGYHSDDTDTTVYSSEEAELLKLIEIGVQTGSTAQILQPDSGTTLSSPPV

[7] = molecular target: Mitogen-activated protein kinase kinase kinase 10 (Homo sapiens) (UniProt Q02779); assay: Selectivity interaction (KinomeScan (DiscoverX)) EUB0000045b MAP3K10
Chain of Mitogen-activated protein kinase kinase kinase 10 (Homo sapiens) (Q02779 whole entry, looked up): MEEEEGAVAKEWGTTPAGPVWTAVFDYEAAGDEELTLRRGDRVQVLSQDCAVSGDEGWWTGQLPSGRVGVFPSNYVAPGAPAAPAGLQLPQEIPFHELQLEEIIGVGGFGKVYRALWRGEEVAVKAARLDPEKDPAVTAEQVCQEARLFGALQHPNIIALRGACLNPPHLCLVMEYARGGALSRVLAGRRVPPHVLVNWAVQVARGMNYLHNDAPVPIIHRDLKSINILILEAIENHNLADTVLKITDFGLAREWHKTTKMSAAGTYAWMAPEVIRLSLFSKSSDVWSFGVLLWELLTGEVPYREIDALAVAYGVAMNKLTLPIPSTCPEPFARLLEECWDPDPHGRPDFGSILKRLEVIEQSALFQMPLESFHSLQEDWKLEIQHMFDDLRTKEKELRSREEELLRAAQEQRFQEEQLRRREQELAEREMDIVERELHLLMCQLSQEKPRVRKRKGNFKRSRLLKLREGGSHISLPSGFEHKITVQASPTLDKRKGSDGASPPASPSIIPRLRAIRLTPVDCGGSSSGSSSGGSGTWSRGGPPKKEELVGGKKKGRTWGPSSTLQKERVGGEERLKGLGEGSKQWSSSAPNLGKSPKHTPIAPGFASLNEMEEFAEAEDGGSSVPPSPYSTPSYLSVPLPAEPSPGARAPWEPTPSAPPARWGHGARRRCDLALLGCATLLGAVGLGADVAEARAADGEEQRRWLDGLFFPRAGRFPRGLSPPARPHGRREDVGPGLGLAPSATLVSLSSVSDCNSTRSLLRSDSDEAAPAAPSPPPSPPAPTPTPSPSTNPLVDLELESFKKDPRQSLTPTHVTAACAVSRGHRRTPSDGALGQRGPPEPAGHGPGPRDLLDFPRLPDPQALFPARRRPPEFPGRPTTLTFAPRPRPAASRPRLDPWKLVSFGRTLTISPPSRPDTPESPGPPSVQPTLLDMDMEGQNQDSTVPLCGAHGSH

Chain of Dual specificity protein kinase CLK1 (P49759 whole entry, looked up): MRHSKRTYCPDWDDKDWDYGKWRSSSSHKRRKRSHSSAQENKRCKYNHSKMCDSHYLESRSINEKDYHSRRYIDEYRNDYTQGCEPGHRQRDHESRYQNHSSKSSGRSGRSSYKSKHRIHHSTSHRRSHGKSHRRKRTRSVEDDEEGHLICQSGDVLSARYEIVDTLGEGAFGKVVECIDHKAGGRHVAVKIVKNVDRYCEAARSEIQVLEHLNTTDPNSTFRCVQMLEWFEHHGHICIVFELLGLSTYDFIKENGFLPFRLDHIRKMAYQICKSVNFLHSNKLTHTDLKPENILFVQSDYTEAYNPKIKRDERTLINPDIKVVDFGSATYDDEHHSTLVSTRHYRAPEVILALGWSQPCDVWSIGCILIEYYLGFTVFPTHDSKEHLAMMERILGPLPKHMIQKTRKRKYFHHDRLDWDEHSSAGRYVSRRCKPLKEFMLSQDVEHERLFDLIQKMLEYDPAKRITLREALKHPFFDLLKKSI

Compound `CCN(CC)CCCCNc1ncc2cc(-c3cc(OC)cc(OC)c3)c(NC(=O)NC(C)(C)C)nc2n1` has a % of control [1] of 100%.
In the case of `COc1cc(N(C)c2ccnc3ccc(C(F)(F)F)cc23)cc(OC)c1OC`, the % binding [2] is reported as 100%.
Work on `CCc1cc(Nc2nccc(-c3c(-c4ccc(OC)c(C(=O)Nc5c(F)cccc5F)c4)nc4ccccn34)n2)c(OC)cc1N1CCC(N2CCN(S(C)(=O)=O)CC2)CC1` yielded a % of inhibition [3] of 47%.
Work on `Cc1cc([C@@H](C)Nc2ccccc2C(=O)O)c2nc(N3CCOCC3)cc(=O)n2c1` [AZD-6482] yielded a % of control [4] of 99%.
`CC[C@@H]1[C@H](F)C(=O)N[C@@H]1COc1nccc2cc(C(N)=O)c(OC)cc12` [ZIMLOVISERTIB] gave a % of inhibition [5] of -10.5%.
`Cc1cc(F)c(C(=O)Nc2cccc(-c3nncn3C(C)C)n2)cc1-n1cnc(C2CC2)c1` gave a % of control [6] of 100%.
`C=CC(=O)Nc1cc(-n2c(=O)ccc3cnc4ccc(-c5ccc(NS(C)(=O)=O)cc5)cc4c32)ccc1C` gave a % of control ([7]; at 1 µM) of 100% and a % of control ([7]; at 10 µM) of 100%.
